Experiment [1] has as its system MDA-MB-231 cells. The experiment can be described thus: WST-1 cell proliferation assay. Format: cell-based, human. As to conditions: for effect on cell proliferation: concentrations as used in migration assay / various concentrations. On the procedure: Cell viability was assessed using WST-1 (Water Soluble Tetrazolium salts) assay (Roche). A single cell suspension was plated in 96-well plates at 2.0×10^4 cells/well and allowed to attach to the plates at 37° C. for 2 hr. […] After the treatment, cell viability was measured by adding 10 μl of Cell Proliferation Reagent WST-1 to each well and incubated for 1 hr at 37° C. in a 5% CO2 incubator. The cell proliferation was measured at an […] wavelength of 450 nm with a Synergy HT Multi-Mode Microplate Reader (Biotek).
(In general: Tetrazolium dyes change colour on reduction, which living cells bring about.)

Experiment [2] has as its system MDA-MB-231 cells. The experiment can be described thus: Transwell cell migration assay, MDA-MB-231. Format: cell-based, human. As to conditions: for effect on migration of MDA-MB-231 cells: 200 μM. On the procedure: (§1) MLO-Y4 cells were seeded onto 150 mm dishes (Corning) and incubated for 24 hr to allow attachment, after which media was removed and changed with α-modified essential medium (α-MEM) without phenol red (Gibco) supplemented with 2.5% FBS and 2.5% BCS (Hyclone). MLO-Y4 cells were incubated in the absence or present of 20 μM AD in a 5% CO2 incubator at 37° C. for 48 hr and the CM was collected.
(§2) Migration assays were performed in transwell membrane filter inserts in 24-well tissue culture plates (BD Biosciences San Jose, Calif., USA). The transwell membrane filter inserts contained 6.5-mm diameter, 8-μm pore size, […] thick polycarbonate membranes. The breast cancer cell lines were harvested and resuspended in CM from MLO-Y4 cells with or without other compounds. Five-hundred microliter breast cancer cell suspensions were added to the upper side of the inserts at a density of 10×10^4 cells/insert and 750 μl CM with or without other compounds was added to the lower wells. Cells were incubated at 37° C. for 18-20 hr. […] The number of migrated cells in 5 fields of view per insert was counted under a light microscope at magnification 10×.

Experiment [3] has as its system Py8119 mouse mammary carcinoma cells. The experiment can be described thus: Transwell cell migration assay, Py8119. Format: cell-based. On the procedure:
as §1, §2

Experiment [4] has as its system MDA-MB-231 cells. The experiment can be described thus: Soft agar colony formation assay (anchorage-independent growth). Format: cell-based, human. The settings on record: about 2 weeks (control 82±4.5). On the procedure:
For anchorage-independent cell growth, MDA-MB-231 cells were plated in 0.4% agarose with complete medium supplemented with either 100 μM ATPγS or 200 μM adenosine on top of a 0.8% agarose base supplemented with complete medium. Cells were maintained for about 2 weeks before staining with p-iodonitrotetrazolium violet (Sigma-Aldrich, St. Louis, Mo.). Images were captured by using a scanner and the numbers of colonies were counted.

For experiment [5], the system named is MDA-MB-231 cells. The experiment can be described thus: Orthotopic MDA-MB-231 xenograft in mammary fat pads of nude mice. Format: in vivo, mouse. The settings on record: for tumor growth rate in comparison to the control group: 400 μmol per mouse IP three times a week. On the procedure:
To test if ATP has a similar, inhibitory effect on tumor growth in vivo, the inventors used an orthotopic mouse model. MDA-MB-231 cells were orthotopically implanted into the mammary fat pads of athymic female nude mice. After the mice were randomly assigned into 3 different treatment groups, the mice were treated with or without ATPγS or adenosine. The ATPγS and adenosine were administered through IP injections at 400 μmol per mouse three times a week. The control mice were injected IP with saline. Dosages were determined by a previous study showing no toxicity from IP injections of up to 50 mM of adenine nucleotides into mice for 10 days. Tumor sizes were measured once every three to four days throughout the treatment period. At the end of the study, the tumors were excised and weighed. […] The reduced mean tumor volume of the treatment group was statistically significant after 17 days of ATPγS treatment. […] Additionally, the adenosine-treated group had 50% increased tumor sizes compared to the control group tumors (FIG. 7B).
MDA-MB-231 cells were injected subcutaneously in the mammary fat pad of 4-week-old female nu/nu athymic nude mice. Each mouse received bilateral subcutaneous inoculation in both the left and right inguinal mammary fat pad areas with 100 μl of cell suspension containing ˜1×10^7 cells/ml in serum-free media. Animals were randomly assigned to 3 different groups, and solid tumors were allowed to form up to about 5 mm^3 volume before treatments began. ATPγS, at 400 μmol/500 μl saline, adenosine, at 400 μmol/500 μl saline, or 500 μl of saline, were administered intraperitoneally (IP) three times a week for 3 weeks. The growth of xenograft tumors was monitored twice a week and tumor size was measured with a caliper in two dimensions. Tumor volumes were calculated with the equation V=(L×W^2)×0.5 (mm^3), where L is length and W is width of a tumor.

The subject of experiment [6] is Py8119 mammary carcinoma cells. The experiment can be described thus: Intratibial injection of Py8119/Luc-GFP cells, bioluminescence imaging. Format: in vivo, mouse. On the procedure:
To assess how systemic treatment with ATPγS may affect the growth of breast cancer cells in the bone microenvironment of a syngeneic host, the inventors performed intratibial injections in wild-type C57b1/6 female mice using the mouse mammary carcinoma cell line Py8119. The mammary tumor cells were injected into the right tibias of the female mice, and the tumor growth was monitored with whole animal imaging once a week for 4 weeks. The mice were treated with IP injection of saline supplemented with or without 400 μmol ATPγS three times a week. […] Quantification data (lower panels) further confirmed the significant decrease of tumor growth in bone with the treatment of ATPγS. Mice were anesthetized by isoflurane and were also given buprenorpine-HCl (0.3 mg/ml) as an analgesic. Py8119 cells expressing Luc-GFP (1×10^5 in 20 μl of PBS) were inoculated into the bone marrow area of right tibias through the pre-made hole by a Hamilton syringe fitted with a 30-gauge needle. […] Intratibial tumor growth was monitored with bioluminescence imaging with a Xenogen IVIS-Spectrum imaging system (Xenogen, Alameda, Calif., USA) every week starting from 3 days after tumor cell inoculation. […] Analysis was performed using LivingImage software (Xenogen) by measurement of photon flux (measured in photons/sec/cm^2/steradian) with a region of interest (ROI) drawn around the bioluminescence signal to be measured. […]

Consider `CCN(CC)c1ncnc2c1ncn2[C@@H]1O[C@H](COP(=O)(O)OP(=O)(O)C(Br)(Br)P(=O)(O)O)[C@@H](O)[C@H]1O` [ARL67156], for which the “effect on cell proliferation” value in the experiment on MDA-MB-231 cells [1] is given as “not caused by changes in cell proliferation”. Moreover, the “effect on the stimulatory effect of higher dosage of ATP on migration” value in the experiment on MDA-MB-231 cells [2] (200 μM ARL67156, 200 μM ATP) was “attenuated”.

Regarding `CCCn1c(=O)c2[nH]c(-c3ccc(OCC(=O)Nc4ccc(C#N)cc4)cc3)nc2n(CCC)c1=O` [MRS1754, N-(4-Cyanophenyl)-2-[4-(2,3,6,7-tetrahydro-2,6-dioxo-1,3-dipropyl-1H-purin-8-yl)phenoxy]-acetamide], in experiment [3], the “effect on adenosine-enhanced migration of Py8119 cells” value is reported as “inhibited”. Besides, the “effect on the inhibitory effect of CM-AD on cell migration” value in the experiment on MDA-MB-231 cells [2] (500 nM MRS1754) is “further augmented the inhibitory effect”. For the same molecule, the “effect on the stimulatory effect of ATP on migration” value in the experiment on MDA-MB-231 cells [2] (500 nM MRS1754, 200 μM ATP, in CM / CM-AD) is given as “attenuated”. In the experiment on MDA-MB-231 cells [2] (500 nM MRS1754, 200 μM adenosine, in CM), the “effect on adenosine-induced increase of MDA-MB-231 cell migration” value is on record as “completely attenuated”. Besides, in the experiment with MDA-MB-231 cells [2] (500 nM MRS1754, apyrase 5 units/ml, in CM), the “effect on the increase of migration caused by apyrase treatment” value is on record as “significantly attenuated”.

In the case of apyrase, the entries for the “increase of MDA-MB-231 cell migration” value in the experiment on MDA-MB-231 cells [2] (apyrase 5 units/ml in CM-AD) and in the experiment on MDA-MB-231 cells [2] (apyrase 5 units/ml in untreated CM) were 7.7 fold and 2.5 fold, respectively.

In the case of `Nc1ncnc2c1ncn2[C@@H]1O[C@H](CO)[C@@H](O)[C@H]1O` [adenosine], the “colony formation of MDA-MB-231 cells in soft agar” value in the experiment on MDA-MB-231 cells [4] (200 μM adenosine) was found to be 132±13.7 colonies. In the experiment on MDA-MB-231 cells [1], the “effect on cell proliferation” value is on record as “minimal effects”. Besides, the “effect on MDA-MB-231 cell migration” value in the experiment on MDA-MB-231 cells [2] (200 μM adenosine in CM from MLO-Y4 cells) is reported as “increased”. In the experiment on MDA-MB-231 cells [2] (20 hr), the “effect on migration of MDA-MB-231 cells” value is reported as “increases”. Moreover, in the experiment with MDA-MB-231 cells [5] (400 μmol adenosine IP three times a week, post mortem), the “increase of tumor sizes compared to control group” value amounted to 50%. Moreover, the “tumor growth rate in comparison to the control group” value in the experiment on MDA-MB-231 cells [5] is listed as “increase”.

Consider `Nc1ncnc2c1ncn2[C@@H]1O[C@H](COP(=O)([O-])OP(=O)([O-])OP([O-])([O-])=S)[C@@H](O)[C@H]1O.[Li+].[Li+].[Li+].[Li+]` [ATPγS, adenosine 5′-[γ-thio]triphosphate tetralithium salt], for which the “tumor growth in the tibias (bioluminescence)” value in experiment [6] (400 μmol ATPγS IP three times a week) is “significantly inhibited”. In addition, in experiment [6] (400 μmol ATPγS IP, after 4 weeks of treatment), the “tumor burden (bioluminescence signals, dorsal and ventral)” value is recorded as “dramatic reduction”. In experiment [3] (100 μM ATPγS in CM / CM-AD), the “effect on migration of Py8119 cells” value is recorded as “decreased”. Besides, the “colony formation of MDA-MB-231 cells in soft agar” value in the experiment with MDA-MB-231 cells [4] (100 μM ATPγS) came to 47±6.2 colonies. The “number of migrated MDA-MB-231 cells” value in the experiment on MDA-MB-231 cells [2] (100 μM ATPγS in control CM (control 112±2.4)) was 63±9.6 cells. The “number of migrating MDA-MB-231 cells” value in the experiment on MDA-MB-231 cells [2] (compound 50 μM) amounted to 46±9.3 cells; in the experiment with MDA-MB-231 cells [2] (compound 100 μM), 33±3.3 cells; in the experiment with MDA-MB-231 cells [2] (compound 200 μM) it was 11±1.7 cells; in the experiment with MDA-MB-231 cells [2] (compound 400 μM), 9±1.5 cells. For the same molecule, the “decrease of size of excised tumors vs control group” value with MDA-MB-231 cells [5] (400 μmol ATPγS IP three times a week, post mortem) is listed as “over 4 fold”. In addition, the “tumor growth rate in comparison to the control group” value with MDA-MB-231 cells [5] is on record as “significantly reduced”.

For `Nc1ncnc2c1ncn2[C@@H]1O[C@H](COP(=O)(O)OP(=O)(O)OP(=O)(O)O)[C@@H](O)[C@H]1O` [ATP, adenosine-5′-triphosphate], the “number of migrated Py8119 cells” value came out at 159±7.8 cells in experiment [3] (400 μM ATP in CM (control 254±25.9)) and 88±10.3 cells in experiment [3] (400 μM ATP in CM-AD (control 127±0.3)). For the same molecule, in the experiment on MDA-MB-231 cells [1], the “effect on cell proliferation” value is reported as “not caused by alterations of cell proliferation”. The “number of migrated MDA-MB-231 cells” value with MDA-MB-231 cells [2] (200 μM ATP added to CM from non-AD-treated MLO-Y4 cells (control 127±2)) came out at 188±33.5; with MDA-MB-231 cells [2] (200 μM ATP added to CM-AD (control 88±10.7)) it was 153±21.1. Moreover, the “effect on migration of MDA-MB-231 cells” value in the experiment with MDA-MB-231 cells [2] (20 hr) is “increased migration”. Moreover, the “number of migrating MDA-MB-231 cells” value in the experiment on MDA-MB-231 cells [2] (compound 50 μM) turned out to be 100±17.7 cells; with MDA-MB-231 cells [2] (compound 200 μM), 257±26 cells; in the experiment with MDA-MB-231 cells [2] (compound 400 μM), 240±0.9 cells.

For `CCOc1nc2c(N)ncnc2n1CC` [ANR94, 8-Ethoxy-9-ethyl-9H-purin-6-amine], the “effect on ATP-increased migration of MDA-MB-231 cells” value in the experiment with MDA-MB-231 cells [2] (100 μM ANR94, 200 μM ATP, 20 hr) is reported as “attenuated”. The “effect on adenosine-increased migration of MDA-MB-231 cells” value in the experiment with MDA-MB-231 cells [2] (100 μM ANR94, 200 μM adenosine, 20 hr) is on record as “attenuated”.

Turning to `Nc1ncnc2c1ncn2[C@@H](C=O)O[C@@H](C=O)COP(=O)(O)OP(=O)(O)OP(=O)(O)O` [oATP], the “effect on the inhibitory effect of CM-AD on MDA-MB-231 cell migration” value in the experiment with MDA-MB-231 cells [2] (300 μM oATP) was “significantly attenuated”.

As for “2′(3′)-O-(4-Benzoylbenzoyl)adenosine-5′-triphosphate tri(triethylammonium) salt [BzATP]”, the “effect on cell proliferation (WST-1)” value is on record as “significant reduction” in the experiment on MDA-MB-231 cells [1] (400 μM) and “minimal effects” in the experiment on MDA-MB-231 cells [1] (concentrations 1-200 μM). For the same molecule, the “number of migrating MDA-MB-231 cells” value in the experiment on MDA-MB-231 cells [2] (compound 10 μM) was found to be 99±7.8 cells; in the experiment on MDA-MB-231 cells [2] (compound 100 μM), 64±4.4 cells; with MDA-MB-231 cells [2] (compound 200 μM), 39±2.6 cells.

Values taken from patent US20150297623A1, “METHODS FOR TREATMENT OF PRIMARY CANCER AND CANCER METASTASIS” (THE BOARD OF REGENTS OF THE UNIVERSITY OF TEXAS SYSTEM, priority 2012, published 2015).
